Results taken from patent publication US7820646B2, “Cyclized derivatives as Eg-5 inhibitors” (Novartis Vaccines and Diagnostics, Inc., priority 2007, dated 2010).

What was measured:
[1] = tested on: HCT-116 colon carcinoma; assay: Inhibition of cellular proliferation in tumor cell lines (CellTiter Glo), HCT-116; type: cell-based; details: Homo sapiens; HCT-116, 72 hours of continuous compound exposure; read-out: Cell Base Activity GI50 HCT-116
Procedure: (§1) Cells are plated in 96-well plates at densities of about 500 cells per well of a 96-well plate and are allowed to grow for 24 hours. The cells are then treated with various concentrations of compounds for 72 hours. Then, 100 μl of CellTiter Glo is added. CellTiter Glo is a tetrazolium-based assay using the reagent 3-(4,5-dimethylthiazol-2-yl) 5-(3-carboxymethoxyphenyl)-2-(4-sulfophenyl)-2H-tetrazolium (MTS) (U.S. Pat. No. 5,185,450) (see Promega product catalog #G3580, CellTiter 96 Aqueous One Solution Cell Proliferation Assay). The cells are then incubated in the dark for 30 minutes. The amount of luminescence is determined for each well using a Walloc Trilux plate reader, which correlates with the number of cells per well. The number of viable cells in the wells that receive only DMSO (0.5%) serve as an indication of 0% inhibition, while wells without cells serve as 100% inhibition of cell growth. The compound concentration that results in a 50% growth inhibition (GI50) is determined graphically from sigmoidal dose-response curves of log-transformed dose values versus cell counts (percent of control) at 72 hours of continuous compound exposure.
(§2) The cell lines used are listed below.
(§3) The cell proliferation assay is performed as described above.

[2] = tested on: HCT-15 colon carcinoma; assay: Inhibition of cellular proliferation in tumor cell lines (CellTiter Glo), HCT-15; type: cell-based; details: Homo sapiens; HCT-15, 72 hours of continuous compound exposure; read-out: Cell Base Activity GI50 HCT-15
Procedure: as §1, §2, §3

[3] = tested on: KB8.5 (KB85 - p-glycoprotein associated multi-drug resistant cell line); assay: Inhibition of cellular proliferation in tumor cell lines (CellTiter Glo), KB8.5; type: cell-based; details: KB8.5, 72 hours of continuous compound exposure; read-out: Cell Base Activity GI50 KB8.5
Procedure: as §1, §2, §3

[4] = tested on: parental cell line; assay: Inhibition of cellular proliferation in tumor cell lines (CellTiter Glo), KB3.1; type: cell-based; details: Homo sapiens, KB 3-1; KB3.1, 72 hours of continuous compound exposure; read-out: Cell Base Activity GI50 KB3.1
Procedure: as §1, §2, §3

[5] = molecular target: T1, motor domain of human KSP (Eg 5, KNSL1) (Homo sapiens, UniProt P52732); assay: Assay for determining KSP activity (microtubule-stimulated ATPase, Biomol Green); details: KSP motor domain 45 nM, microtubules 35 μg/mL, 1 hour at RT; read-out: Biochemical Activity IC50
T1 construct: KSP motor protein (i.e., the KSP motor domain); made in house
T1 sequence (P52732 18-359 limits assumed): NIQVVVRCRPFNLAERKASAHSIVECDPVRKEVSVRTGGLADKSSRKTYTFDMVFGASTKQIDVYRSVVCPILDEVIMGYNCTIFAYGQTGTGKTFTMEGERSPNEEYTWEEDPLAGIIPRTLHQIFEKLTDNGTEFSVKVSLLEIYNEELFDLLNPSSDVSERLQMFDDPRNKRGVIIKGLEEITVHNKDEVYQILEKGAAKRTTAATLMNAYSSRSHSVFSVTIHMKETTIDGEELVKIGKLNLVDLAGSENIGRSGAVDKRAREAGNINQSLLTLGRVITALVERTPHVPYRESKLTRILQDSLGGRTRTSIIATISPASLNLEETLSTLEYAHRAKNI
Text: This example provides a representative in vitro assay for determining KSP activity in vitro. Purified microtubules obtained from bovine brain were purchased from Cytoskeleton Inc. (Denver, Colo., USA). The motor domain of human KSP (Eg 5, KNSL1) was cloned, expressed, and purified to greater than 95% homogeneity. Biomol Green was purchased from Affinity Research Products Ltd. (Matford Court, Exeter, Devon, United Kingdom). Microtubules and KSP motor protein (i.e., the KSP motor domain) were diluted in assay buffer (20 mM Tris-HCl (pH 7.5), 1 mM MgCl2, 10 mM DTT and 0.25 mg/mL BSA) to a final concentration of 35 μg/mL microtubules and 45 nM KSP. The microtubule/KSP mixture was then pre-incubated at 37° C. for 10 min to promote the binding of KSP to microtubules.
To each well of the testing plate (384-well plate) containing 1.25 μL of inhibitor or test compound in DMSO (or DMSO only in the case of controls) were added 25 μL of ATP solution (ATP diluted to a concentration of 300 μM in assay buffer) and 25 μL of the above-described microtubule/KSP solution. The plates were incubated at RT for 1 hour. Following incubation, 65 μL of Biomol Green (a malachite green-based dye that detects the release of inorganic phosphate) was added to each well. The plates were incubated for an additional 5-10 minutes then the absorbance at 630 nm was determined using a Victor II plate reader. The amount of absorbance at 630 nm corresponded to the amount of KSP activity in the samples. The IC50 of each inhibitor or test compound was then determined based on the decrease in absorbance at 630 nm at each concentration, via nonlinear regression using either XLFit for Excel or Prism data analysis software by GraphPad Software Inc.

Row | GI50 [1] [nM] | GI50 [2] [nM] | GI50 [3] [nM] | IC50 [5] [nM] | Structure (SMILES) | GI50 [4] [nM]
1 | 100 to 1000 | > 1000 | > 1000 | 100 to 1000 | CC(C)(C)[C@H](c1nc(-c2ccccc2)cn1Cc1ccccc1)N1CC(CCN)OC1=O (stereo in doubt) [Compound 1, (5R)-5-(2-aminoethyl)-3-[(1R)-1-(1-benzyl-4-phenyl-1H-imidazol-2-yl)-2,2-dimethylpropyl]-1,3-oxazolidin-2-one] | 100 to 1000
2 | > 1000 | > 1000 | > 1000 | 100 to 1000 | CC(C)[C@H](c1nc(-c2cccc(Cl)c2)cn1Cc1ccccc1)N1CC(CN)OC1=O (stereo partly drawn) [Compound 3, 5-(aminomethyl)-3-{(1R)-1-[1-benzyl-4-(3-chlorophenyl)-1H-imidazol-2-yl]-2-methylpropyl}-1,3-oxazolidin-2-one] | > 1000
3 | – | – | > 1000 | 100 to 1000 | CC(C)(C)[C@H](c1nc(-c2ccccc2)cn1Cc1ccccc1)N1C[C@H](CN)COC1=O [Compound 4, (5S)-5-(aminomethyl)-3-[(1R)-1-(1-benzyl-4-phenyl-1H-imidazol-2-yl)-2,2-dimethylpropyl]-1,3-oxazinan-2-one] | > 1000
4 | – | – | 100 to 1000 | ≤ 100 | CC(C)(C)[C@H](c1nc(-c2ccccc2)cn1Cc1ccccc1)N1C[C@@H](CN)COC1=O [Compound 5, (5R)-5-(aminomethyl)-3-[(1R)-1-(1-benzyl-4-phenyl-1H-imidazol-2-yl)-2,2-dimethylpropyl]-1,3-oxazinan-2-one] | 100 to 1000
5 | 100 to 1000 | > 1000 | > 1000 | 100 to 1000 | CC(C)(C)[C@H](c1nc(-c2ccccc2)cn1Cc1ccccc1)N1C[C@H](CN)OCC1=O [Compound 6, (6S)-6-(aminomethyl)-4-[(1R)-1-(1-benzyl-4-phenyl-1H-imidazol-2-yl)-2,2-dimethylpropyl]morpholin-3-one] | 100 to 1000
6 | 100 to 1000 | 100 to 1000 | 100 to 1000 | ≤ 100 | CC(C)(C)[C@H](c1nc(-c2ccccc2)cn1Cc1ccccc1)N1C[C@@H](CN)OCC1=O [Compound 7, (6R)-6-(aminomethyl)-4-[(1R)-1-(1-benzyl-4-phenyl-1H-imidazol-2-yl)-2,2-dimethylpropyl]morpholin-3-one] | 100 to 1000
7 | – | – | – | > 1000 | CC(C)[C@H](c1nc(-c2cccc(Cl)c2)cn1Cc1ccccc1)N1C[C@@H](CN)OCC1=O [Compound 8, (6R)-6-(aminomethyl)-4-{(1R)-1-[1-benzyl-4-(3-chlorophenyl)-1H-imidazol-2-yl]-2-methylpropyl}morpholin-3-one] | –
8 | 100 to 1000 | 100 to 1000 | > 1000 | > 1000 | CC(C)[C@H](c1nc(-c2cccc(Cl)c2)cn1Cc1ccccc1)N1C[C@H](CN)OCC1=O [Compound 9, (6S)-6-(aminomethyl)-4-{(1R)-1-[1-benzyl-4-(3-chlorophenyl)-1H-imidazol-2-yl]-2-methylpropyl}morpholin-3-one] | 100 to 1000
9 | – | – | – | 100 to 1000 | CC(C)(C)[C@H](c1nc(-c2ccccc2)cn1Cc1ccccc1)N1C[C@@H](CCN)OCC1=O [Compound 10, (6R)-6-(2-aminoethyl)-4-[(1R)-1-(1-benzyl-4-phenyl-1H-imidazol-2-yl)-2,2-dimethylpropyl]morpholin-3-one] | –
10 | – | – | – | 100 to 1000 | CC(C)(C)[C@H](c1nc(-c2ccccc2)cn1Cc1ccccc1)N1C[C@H](CCN)OCC1=O [Compound 11, (6S)-6-(2-aminoethyl)-4-[(1R)-1-(1-benzyl-4-phenyl-1H-imidazol-2-yl)-2,2-dimethylpropyl]morpholin-3-one] | –
11 | – | – | – | > 1000 | CC(C)[C@H](c1nc(-c2cccc(Cl)c2)cn1Cc1ccccc1)N1C[C@H](CCN)OCC1=O [Compound 12, (6S)-6-(2-aminoethyl)-4-{(1R)-1-[1-benzyl-4-(3-chlorophenyl)-1H-imidazol-2-yl]-2-methylpropyl}morpholin-3-one] | –
12 | – | – | > 1000 | 100 to 1000 | CC(C)(C)[C@H](c1nc(-c2ccccc2)cn1Cc1ccccc1)N1C[C@@H](CO)NCCC1=O [Compound 19, (2S)-4-[(1R)-1-(1-benzyl-4-phenyl-1H-imidazol-2-yl)-2,2-dimethylpropyl]-2-(hydroxymethyl)-1,4-diazepan-5-one] | > 1000
13 | – | – | > 1000 | ≤ 100 | CC(C)(C)[C@H](c1nc(-c2ccccc2)cn1Cc1ccccc1)N1C[C@@H](CN)N(S(C)(=O)=O)CCC1=O [Compound 21, (2R)-2-(aminomethyl)-4-[(1R)-1-(1-benzyl-4-phenyl-1H-imidazol-2-yl)-2,2-dimethylpropyl]-1-(methylsulfonyl)-1,4-diazepan-5-one] | ≤ 100
14 | – | – | > 1000 | 100 to 1000 | CC(C)(C)[C@H](c1nc(-c2ccccc2)cn1Cc1ccccc1)N1C[C@H](CN)OCCC1=O [Compound 22, (2S)-2-(aminomethyl)-4-[(1R)-1-(1-benzyl-4-phenyl-1H-imidazol-2-yl)-2,2-dimethylpropyl]-1,4-oxazepan-5-one] | > 1000
15 | – | – | 100 to 1000 | ≤ 100 | CC(C)(C)[C@H](c1nc(-c2ccccc2)cn1Cc1ccccc1)N1C[C@H](CN)COCC1=O [Compound 24, (6S)-6-(aminomethyl)-4-[(1R)-1-(1-benzyl-4-phenyl-1H-imidazol-2-yl)-2,2-dimethylpropyl]-1,4-oxazepan-3-one] | 100 to 1000
16 | 100 to 1000 | – | 100 to 1000 | ≤ 100 | CC(C)(C)[C@H](c1nc(-c2cccc(F)c2)cn1Cc1cc(F)cc(F)c1)N1C[C@@H](CN)COCC1=O [Compound 26, (6R)-6-(aminomethyl)-4-{(1R)-1-[1-(3,5-difluorobenzyl)-4-(3-fluorophenyl)-1H-imidazol-2-yl]-2,2-dimethylpropyl}-1,4-oxazepan-3-one] | 100 to 1000
17 | – | – | – | ≤ 100 | CC(C)(C)[C@H](c1nc(-c2ccccc2)cn1Cc1ccccc1)N1C[C@@H](CN)CNC(=O)C1=O [Compound 30, (6S)-6-(aminomethyl)-1-[(1R)-1-(1-benzyl-4-phenyl-1H-imidazol-2-yl)-2,2-dimethylpropyl]-1,4-diazepane-2,3-dione] | –
18 | – | – | – | 100 to 1000 | CC(C)(C)[C@H](c1nc(-c2ccccc2)cn1Cc1ccccc1)N1C[C@H](F)CNCC1=O [Compound 31, (6R)-1-[(1R)-1-(1-benzyl-4-phenyl-1H-imidazol-2-yl)-2,2-dimethylpropyl]-6-fluoro-1,4-diazepan-2-one] | –
19 | – | – | > 1000 | 100 to 1000 | CC(C)(C)[C@H](c1nc(-c2ccccc2)cn1Cc1ccccc1)N1C[C@@H](F)CNCC1=O [Compound 32, (6S)-1-[(1R)-1-(1-benzyl-4-phenyl-1H-imidazol-2-yl)-2,2-dimethylpropyl]-6-fluoro-1,4-diazepan-2-one] | > 1000
